This note sets out measurements from US20080194483A1, “GLP-1 (9-36) methods and compositions” (priority 2003, published 2008).

Series [1] has as its system rat hepatocytes. Put plainly: Gluconeogenesis (glucose production) in isolated rat liver cells. The format is cell-based. The following applies: liver cells of non-diabetic control strain rats, 1000 pM insulin without GLP-1(9-36), 24 hours. The method, then:
Liver cells were isolated from non-diabetic control strain rats and from SDF rats. Single-cell suspensions of hepatocytes were obtained from perfusions using the procedure of Berry and Friend (1969) and the perfusion mixture of […] et al. (1979). The cells were plated on tissue culture plastic for 6 hours at a density of 2×10^5 cells per well in a 24-well culture plate that was pre-coated with rat-tail collagen I. During plating, cells were cultured in RPMI 1640 medium supplemented with 10% FBS, penicillin/streptomycin, 10 μg/ml insulin and 10 μM dexamethasone. After allowing for adherence, the media was changed to RPMI with 5 mM glucose, 0.4% FCS, and no insulin or dexamethasone. The cells were allowed to equilibrate overnight in this low-glucose media. The following morning this media was refreshed, insulin alone, or insulin and GLP-1(9-36) were added and treatment lasted another 24 hours. After stimulation, glucose production was measured by incubating the cells for 6 hours in glucose-free RPMI containing 5 mM each of alanine, valine, glycine, pyruvate and lactate. Glucose was subsequently measured with a Trinder assay (Sigma). Averages were obtained of 4 independent measurements.

The subject of series [2] is bovine aortic endothelial cells (BAECs). In words: Hyperglycemia-induced intracellular ROS (CM-H2DCFDA) in cultured vascular endothelial cells. It is filed as cell-based. The method, then: Cell culture conditions. For reactive oxygen species (RO) measurement, bovine aortic endothelial cells (BAECs, passage 4-10) were plated in 96 well plates at 100,000 cells/well in Eagle's MEM containing 10% FBS, essential and nonessential amino acids, and antibiotics. Cells were incubated with either 5 mM glucose, 30 mM glucose, 30 mM glucose plus 10 nM GLP-1 (7-36), 30 mM glucose plus 10 nM GLP-1 (7-36), 30 mM glucose plus 10 nM GLP-1 (7-36) plus 10 μM pyrrolidide (a DPP IV inhibitor), 30 mM glucose plus 10 nM GLP-1 (7-36) plus 10 μM pyrrolidide and 100 μM phosphoramidon (a neutral endopeptidase 24.11 inhibitor), and 30 mM glucose plus GLP-1 (9-36) plus 10 nM exendin 9-39, a blocker of the GLP-1 (7-36) receptor. The pyrrolidide, phosphoramidon, and exendin 9-39 were each added to the cells four hours before the addition of the peptides. The ROS measurements were performed 24 hrs later.
Intracellular reactive oxygen species measurements. The intracellular formation of reactive oxygen species was detected using the fluorescent probe CM-H2DCFDA (Molecular Probes). Cells (1×10^5 ml^−1) were loaded with 10 μM CM-H2DCFDDA, incubated for 45 min at 37° C., and analysed in an HTS 7000 Bio Assay Fluorescent Plate Reader (Perkin Elmer) using the HTSoft program. ROS production was determined from an H2O2 standard curve (10-200 nmol ml^−1).

Series [3] relates to endothelial nitric oxide synthase (eNOS). Put plainly: eNOS activity ([3H]L-arginine to [3H]L-citrulline) in cultured vascular endothelial cells. The format is cell-based, bovine. The following applies: BAECs. The method, then:
Cell-culture conditions. For measurement of endothelial nitric oxide activity (eNOS), bovine aortic endothelial cells (BAECs, passage 4-10) were plated in 24 well plates at 200,000 cells /well in Eagle's MEM containing 10% FBS, essential and nonessential amino acids, and antibiotics. Cells were incubated with either 5 mM glucose, 30 mM glucose, 30 mM glucose plus 10 nM GLP-1 (7-36), 30 mM glucose plus 10 nM GLP-1 (7-36) plus 10 μM pyrrolidide (a DPP IV inhibitor) (not shown in FIG. 2), 30 mM glucose plus 10 nM GLP-1 (7-36) plus 10 μM pyrrolidide and 100 μM phosphoramidon (a neutral endopeptidase 24.11 inhibitor), 30 mM glucose+GLP-1 (9-36), and 30 mM glucose plus GLP-1 (9-36) plus 10 nM exendin 9-39, a blocker of the GLP-1 (7-36) receptor. The pyrrolidide, phosphoramidon, and exendin 9-39 were each added to the cells four hours before the addition of the peptides. eNOS activity measurements were performed 48 hrs later. Measurement of eNOS activity. eNOS activity in cells was determined by first incubating cells in L-arginine-deficient, serum-free MEM media for 6 hours. […] The eluate was collected in glass scintillation vials for [^3H]L-citrulline quantitation by liquid scintillation spectroscopy.

Series [4] deals with human aortic endothelial cells (HAEC). In words: Nutrient-induced ROS (CM-H2DCFDA) in human aortic endothelial cells. The format is cell-based. The method, then:
Cell Culture conditions. Confluent HAECs (passage 1-6) were maintained in EGM2 media containing 0.4% FBS plus growth factor additives. Cells were incubated for varying times with either 5 mM glucose, 12 mM glucose, or 5 mM glucose plus 800 μM oleic acid and 1 mM albumin. In other experiments, cells were incubated with 5 mM glucose, 12 mM glucose, or 5 mM glucose plus 800 μM oleic acid and 1 mM albumin, alone, or with either 100 pM GLP-1 (7-36 NH2), GLP-1 (7-36 NH2)+ the DPPIV inhibitor H-lys(4-nito-Z)-pyrrolidide and the neutral endopeptidase inhibitor phosphoramidon, GLP-1 (9-36 NH2), GLP-1 (9-36 NH2) plus the GLP-1 receptor blocker […], and with GLP-1 (9-36 NH2) with 100× GLP-1 (7-36 NH2) and both DPPIV and NEP inhibitors. Cells were pre incubated for four hrs in cycloheximide (5 ug/ml). In experiments using clotrimazole cells were preincubated for 2.5 hrs in serum free media. Reactive oxygen species quantification. Cells were plated in 96-well cell culture plates. Intracellular reactive oxygen species were detected using the fluorescent probe CM-H2DCFDA (Molecular Probes). Cells were loaded with 10 μM CM-H2DCFDA, incubated for 45 min at 37° C., and analyzed with an HTS 7000 Bio Assay Fluorescent Plate Reader (Perkin Elmer) using the HTSoft program.

Series [5] relates to hepatocytes. It is filed as cell-based. The method, then: An experiment similar to that described in Example 1 was performed, using hepatocytes rather than endothelial cells.

Where no end group is shown, it is not given here.

Regarding insulin, the “gluconeogenesis, % of control levels” value in series [1] is given as 46 % of control levels.
Take “GLP-1 (7-36) (HAEGTFTSDVSSYLEGQAAKEFIAWLVKGR-NH2; UniProt P01275 98-127, looked up, fragment)”: the “hyperglycemia-induced ROS production when GLP-1 degradation is blocked” value in series [2] (30 mM glucose, 10 nM peptide plus 10 μM pyrrolidide (DPP IV inhibitor) with or without 100 μM phosphoramidon (FIG. 1, bars 4 and 5)) is given as “no effect”. The “hyperglycemia-induced ROS production” value in series [2] (30 mM glucose, peptide alone, ROS measured 24 hrs later (FIG. 1)) was “completely prevents”. The “hyperglycemia-induced decrease in eNOS activity when GLP-1 (7-36) degradation is blocked” value in series [3] (30 mM glucose, 10 nM peptide plus 10 μM pyrrolidide and 100 μM phosphoramidon (FIG. 2, bar 4)) is on record as “no effect”. Moreover, in series [4] (12 mM glucose, 2 hrs, with protease inhibitors), the “high glucose-induced ROS in the presence of DPP-4 and neutral endopeptidase 24.11 inhibitors” value is “no effect”. Besides, in series [4] (GLP-1 (9-36 NH2) with 100× GLP-1 (7-36 NH2) and both DPPIV and NEP inhibitors), the “effect of 100-fold excess bioactive GLP-1 on ability of GLP-1 [9-36amide] to prevent nutrient-induced ROS” value is recorded as “did not affect”.
Turning to exendin 9-39 [e9-39], the “effect of GLP-1 receptor blockade on inhibition of hyperglycemia-induced ROS by GLP-1 (9-36)” value in series [2] (30 mM glucose plus GLP-1 (9-36) plus 10 nM exendin 9-39) is recorded as “no effect”. In addition, the “effect of GLP-1 receptor blockade on GLP-1 (9-36) protection of eNOS activity” value in series [3] (30 mM glucose plus GLP-1 (9-36) plus 10 nM exendin 9-39 (FIG. 2, bar 6)) was “no effect”. For the same molecule, in series [4] (12 mM glucose, GLP-1 (9-36 NH2) plus receptor blocker), the “effect of GLP-1R antagonist on ability of GLP-1 degradation products to prevent glucose-induced ROS” value was “no effect”.
Regarding `CC[C@H](C)[C@H](NC(=O)[C@H](Cc1ccccc1)NC(=O)[C@H](CCC(=O)O)NC(=O)[C@H](CCCCN)NC(=O)[C@H](C)NC(=O)[C@H](C)NC(=O)[C@H](CCC(N)=O)NC(=O)CNC(=O)[C@H](CCC(=O)O)NC(=O)[C@H](CC(C)C)NC(=O)[C@H](Cc1ccc(O)cc1)NC(=O)[C@H](CO)NC(=O)[C@H](CO)NC(=O)[C@@H](NC(=O)[C@H](CC(=O)O)NC(=O)[C@H](CO)NC(=O)[C@@H](NC(=O)[C@H](Cc1ccccc1)NC(=O)[C@@H](NC(=O)CNC(=O)[C@@H](N)CCC(=O)O)[C@@H](C)O)[C@@H](C)O)C(C)C)C(=O)N[C@@H](C)C(=O)N[C@@H](Cc1c[nH]c2ccccc12)C(=O)N[C@@H](CC(C)C)C(=O)N[C@H](C(=O)N[C@@H](CCCCN)C(=O)NCC(=O)N[C@@H](CCCNC(=N)N)C(N)=O)C(C)C` [GLP-1 (9-36)], the “hyperglycemia-induced ROS formation in hepatocytes” value in series [5] is listed as “inhibited”.
